Assays:
[1] = system: A549 adenocarcinoma alveolar epithelial cancer cells; assay: Antiproliferative activity (NCI procedure, sulforhodamine B), A549; format: cell-based, human; conditions: 48 h; for GI50: Table 2; for IC50: Table 6, unit inferred, tested 781 nM to 100 μM
Summary of the method: (§1)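 Cells seeded in DMEM, grown 24 h at 37 °C, then exposed 48 h to serial dilutions from 100 μM to 781 nM (DMSO <0.5%). TCA fixation, sulforhodamine B staining, absorbance at 530-568 nm; growth inhibition relative to plates fixed on treatment day. At least two experiments in triplicate.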

[2] = system: HT-29 colon adenocarcinoma cells; assay: Antiproliferative activity (NCI procedure, sulforhodamine B), HT-29; format: cell-based, human; conditions: 48 h; for GI50: Table 2; for IC50: Table 6, unit inferred, tested 781 nM to 100 μM
Summary of the method: as §1

HaCaT cells = assay: Cell cycle analysis by flow cytometry; format: cell-based, human; conditions: for Cell cycle progression G0-G1 / Cell cycle progression G2-M / Cell cycle progression S: 10 μM, 24 h; for effect on cell cycle progression: in words
Method: The effect of compounds 3a-b, 4e, 5b-c, 6a and 6e on cell cycle progression was subsequently assessed using a flow cytometer in accordance with established experimental protocols to evaluate any potential drug toxicity at specific phases of the cell cycle (Table 3).
HaCaT cells (2.5×10^5) were incubated with compounds 3a-b, 4e, 5b-c, 6a and 6e and curcumin (10 μM) over a period of 24 h. The cells were subsequently trypsinized, washed with PBS, resuspended in PBS (250 μL), fixed by the addition of ice-cold EtOH (750 μL) under agitation and stored at −20° C. until analysis. Prior to FACS analysis, cells were washed with PBS and resuspended in PBS (500 μL) containing 4′,6′-diamidino-2-phenylindole (DAPI) (2 μg/mL). The cell cycle was analyzed using an LSR II flow cytometer (BD Biosciences, Franklin Lakes, N.J.).

[3] = system: HaCaT keratinocyte cell line; assay: Antiproliferative activity (NCI procedure, sulforhodamine B), HaCaT; format: cell-based, human; conditions: 48 h; for GI50: Table 2; for IC50: Table 6, unit inferred, tested 781 nM to 100 μM
Summary of the method: as §1

IL-6 = IL-6 expression in HaCaT cells stimulated with IL-17A and TNFα (ELISA); format: cell-based, human; conditions: for Expression of IL-6, HaCaT: 10 μM solutions, HaCaT stimulated with IL-17A and TNFα, mean of five experiments in duplicate; for inhibitory effect on IL-6 expression in HaCaT cells: 10 μM, stimulated with IL-17A and TNFα
From the text: The effect of compounds 3a-b, 4a-e, 5a-e and 6a-e on the expression of IL-6 was subsequently assessed using the HaCaT spontaneously transformed aneuploid immortal keratinocyte cell line, stimulated by the addition of IL-17A and TNFα in the culture medium (Table 1). Curcumin and ibuprofen were used as known IL-6 expression inhibitors. DMSO was used for solubilizing the drugs. […] Indeed, the inhibitory effect of these molecules was at least equivalent to that of curcumin [27] and ibuprofen, both recognized as anti-inflammatory drugs. The inhibitory effect of the substituted phenyl cycloalkylureas in accordance with an embodiment of the present disclosure on proinflammatory cytokines was also found at the mRNA level. Indeed, the mRNAs of the cytokines IL-6 and TNF-α as well as the mRNA of the chemokine IL-8 were lowered in TNF-α/IL-17A-stimulated HaCaT cells. Similar results were obtained in THP-1 cells stimulated with LPS where treatments with CHEU and 4e diminished the mRNA levels of the cytokines IL-1B, IL-6 and TNF-α in addition to the mRNA levels of the chemokine IL-8. It is surmised that the anti-inflammatory mechanism of action of the compounds of the present disclosure is likely mediated, at least in part, by modulating the phosphorylation state of the MAP kinase p38. […] Addition of a compound in accordance with an embodiment of the present disclosure, prior to stimulation with the aforementioned cytokines, decreases the level of p-p38 at 30-60 minutes post-stimulation. This diminution in p-p38 levels destabilizes the mRNAs of pro-inflammatory cytokines, non-limiting examples of which include TNF-α and IL-6. Moreover, it is surmised that the effect of the compounds of the present disclosure on p-p38 is potentially mediated by the activation of the phosphatase named DUSP1.
HaCaT cells (1×10^5) were suspended in DMEM culture media (500 μL) and incubated for 24 h in 24-well microtiter plates at 37° C. in a moisture-saturated atmosphere containing 5% CO2. Compounds were solubilized in DMSO and diluted in fresh DMEM. The compound (500 μL) was then added to the cell medium to obtain a final concentration of […] and the cells incubated over a period of 1 hour. In the meantime, IL-17α (200 ng/mL) and TNFα (20 ng/mL) (PeproTech, Rocky Hill, N.J.) were added to the drug solution in DMEM. Following the initial incubation of the cells, the culture medium was aspirated from each well and the IL-17α+ TNFα+ compound solution was added to each well for incubation (6 hours). The culture media was then removed and transferred to a clean tube (1.5 mL) at −80° C. until the ELISA test was performed. The presence of IL-6 in the cell media was determined using an IL-6 human Duoset ELISA kit (Fisher Scientific, Ottawa, On.) according to the manufacturer's instructions. Standards and samples were prepared and assessed in duplicate. Two separate replicates were performed for each sample. The absorbance was measured at 450 nm and 540 nm using a TECAN infinite M1000 plate reader.

[4] = system: HDFn neonatal dermal fibroblast cell line; assay: Antiproliferative activity (NCI procedure, sulforhodamine B), HDFn; format: cell-based, human; conditions: 48 h; for GI50: Table 2; for IC50: Table 6, unit inferred, tested 781 nM to 100 μM
Summary of the method: as §1

cancer cell lines = conditions: background, refs [4, 5]; in words; cited from earlier work

Row | Structure (SMILES) | GI50 ([1]; Homo sapiens, A549) [µM] | IC50 ([1]; Homo sapiens, A549) [µM] | GI50 ([2]; Homo sapiens, HT-29) [µM] | IC50 ([2]; Homo sapiens, HT-29) [µM] | GI50 ([3]; Homo sapiens, HaCaT) [µM] | IC50 ([3]; Homo sapiens, HaCaT) [µM] | melting point [°C] | Expression of IL-6, HaCaT (IL-6) [pg/mL] | GI50 ([4]; Homo sapiens, Fibroblast) [µM] | IC50 ([4]; Homo sapiens, Fibroblast) [µM] | Cell cycle progression G0-G1 (HaCaT cells) | Cell cycle progression G2-M (HaCaT cells) | Cell cycle progression S (HaCaT cells) | effect on cell cycle progression (HaCaT cells) | inhibitory effect on IL-6 expression in HaCaT cells (IL-6; in words) | further results
1 | CCNC(=O)Nc1ccc(C(C)(C)C)cc1 [Compound 63, 1-(4-(t-Butyl)phenyl)-3-ethylurea] | 69 | 69 | 75 | 75 | > 100 | ≥ 100 | 136 to 139 | 81.9 ± 10.8 | 60 | 60 |  |  |  |  |  | Cell cycle progression G0-G1 (HaCaT cells; listed as 3a): 44; Cell cycle progression G2-M (HaCaT cells; listed as 3a): 31; Cell cycle progression S (HaCaT cells; listed as 3a): 25.1
2 | O=C(Nc1ccc(C2CCCCC2)cc1)NC1CCCC1 [Compound 58, 1-(4-Cyclohexylphenyl)-3-cyclopentylurea] | 11 | 11 | 13 | 13 | 82 | 82 | 197 to 199 | 50.3 ± 4.7 | 56 | 56 | 50.1 | 25.2 | 24.7 | did not affect the cell cycle progression | significant inhibitory effect | 
3 | CC(C)(C)c1ccc(NC(=O)NCCCl)cc1 [tBCEU, reference compound] |  |  |  |  |  |  |  | 130.6 ± 15.6 |  |  | 57.3 | 15.6 | 26.8 | arresting the cell cycle progression in the G2-M phase |  | GI50 [1]: 6.9 µM; GI50 [2]: 6.5 µM; GI50 [3]: 12 µM; antiproliferative activity on numerous cancer cell lines (cancer cell lines): potent antiproliferative activity; effect on the expression of IL-6 by HaCaT cells (IL-6; HaCaT cells treated with IL-17 and TNFα, in words): significant decrease; GI50 [4]: 11 µM
4 | O=C(Nc1cccc(I)c1)NC1CCCC1 [Compound 40, 1-Cyclopentyl-3-(3-iodophenyl)urea] | 30 | 30 | 30 | 30 | 49 | 49 | 142 to 143 | 89.8 ± 9.0 | 23 | 23 |  |  |  |  |  | 
5 | CC(C)(C)c1cccc(NC(=O)NC2CC2)c1 [Compound 44] | > 100 | ≥ 100 | > 100 | ≥ 100 | > 100 | ≥ 100 | 169 to 171 | 50.4 ± 2.6 | > 100 | ≥ 100 |  |  |  |  |  | 
6 | O=C(NCC1CCC1)Nc1ccc(C2CCCCC2)cc1 [Compound 57, 1-(Cyclobutylmethyl)-3-(4-cyclohexylphenyl)urea] | > 100 | ≥ 100 | > 100 | ≥ 100 | > 100 | ≥ 100 | 172 to 173 | 64.1 ± 5.4 | > 100 | ≥ 100 |  |  |  |  | significant inhibitory effect | 
